Results reported in PubChem BioAssay (NCI).
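Five compound concentrations were applied to cells in 96-well plates for 48 hours; endpoints were derived by simple linear interpolation of the resulting dose-response curve. TGI denotes the concentration required for complete inhibition of growth.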

Key:
Test in all cases: DTP human tumour cell line panel, 48 h
[1] = system: 786-0 renal
[2] = system: A498 renal
[3] = system: A549 NSCLC
[4] = system: ACHN renal
[5] = system: BT-549 breast
[6] = system: CAKI-1 renal
[7] = system: CCRF-CEM leukemia
[8] = system: COLO 205 colon
[9] = system: DU-145 prostate
[10] = system: EKVX NSCLC
[11] = system: HCT-116 colon
[12] = system: HCT-15 colon
[13] = system: HL-60(TB) leukemia
[14] = system: HOP-62 NSCLC
[15] = system: HOP-92 NSCLC
[16] = system: HS 578T breast
[17] = system: HT29 colon
[18] = system: IGROV1 ovarian
[19] = system: K-562 leukemia
[20] = system: KM12 colon
[21] = system: LOX IMVI melanoma
[22] = system: M14 melanoma
[23] = system: MALME-3M melanoma
[24] = system: MDA-MB-231 breast
[25] = system: MDA-MB-435
[26] = system: MDA-N
[27] = system: MOLT-4 leukemia
[28] = system: NCI-H226 lung
[29] = system: NCI-H23 lung
[30] = system: NCI-H460 lung
[31] = system: NCI-H522 lung
[32] = system: NCI/ADR-RES ovarian
[33] = system: OVCAR-3 ovarian
[34] = system: OVCAR-5 ovarian
[35] = system: OVCAR-8 ovarian
[36] = system: PC-3 prostate
[37] = system: RPMI-8226 leukemia
[38] = system: RXF 393 renal
[39] = system: SF-268 CNS
[40] = system: SF-295 CNS
[41] = system: SF-539 CNS
[42] = system: SK-MEL-2 melanoma
[43] = system: SK-MEL-28 melanoma
[44] = system: SK-MEL-5 melanoma
[45] = system: SK-OV-3 ovarian
[46] = system: SN12C renal
[47] = system: SNB-19 CNS
[48] = system: SNB-75 CNS
[49] = system: SW-620 colon
[50] = system: T-47D breast
[51] = system: TK-10 renal
[52] = system: U251 CNS
[53] = system: UACC-257 melanoma
[54] = system: UACC-62 melanoma
[55] = system: UO-31 renal
[56] = system: HCC-2998 colon
[57] = system: MCF7 breast
[58] = system: OVCAR-4 ovarian
[59] = system: SR leukemia

COc1nc(N)nc2c1n(C)c[n+]2C
TGI [1]: > 100 µM | TGI [2]: > 100 µM | TGI [3]: > 100 µM | TGI [4]: > 100 µM | TGI [5]: > 100 µM | TGI [6]: > 100 µM | TGI [7]: > 100 µM | TGI [8]: > 100 µM | TGI [9]: > 100 µM | TGI [10]: > 100 µM | TGI [11]: > 100 µM | TGI [12]: > 100 µM | TGI [13]: > 100 µM | TGI [14]: > 100 µM | TGI [15]: > 100 µM | TGI [16]: > 100 µM | TGI [17]: > 100 µM | TGI [18]: > 100 µM | TGI [19]: > 100 µM | TGI [20]: > 100 µM | TGI [21]: > 100 µM | TGI [22]: > 100 µM | TGI [23]: > 100 µM | TGI [24]: > 100 µM | TGI [25]: > 100 µM | TGI [26]: > 100 µM | TGI [27]: > 100 µM | TGI [28]: > 100 µM | TGI [29]: > 100 µM | TGI [30]: > 100 µM | TGI [31]: > 100 µM | TGI [32]: > 100 µM | TGI [33]: > 100 µM | TGI [34]: > 100 µM | TGI [35]: > 100 µM | TGI [36]: > 100 µM | TGI [37]: > 100 µM | TGI [38]: > 100 µM | TGI [39]: > 100 µM | TGI [40]: > 100 µM | TGI [41]: > 100 µM | TGI [42]: > 100 µM | TGI [43]: > 100 µM | TGI [44]: > 100 µM | TGI [45]: > 100 µM | TGI [46]: > 100 µM | TGI [47]: > 100 µM | TGI [48]: > 100 µM | TGI [49]: > 100 µM | TGI [50]: > 100 µM | TGI [51]: > 100 µM | TGI [52]: > 100 µM | TGI [53]: > 100 µM | TGI [54]: > 100 µM | TGI [55]: > 100 µM

NS(=O)(=O)c1ccc(NC(=S)/N=C/c2c(O)c3ccccc3[nH]c2=O)cc1
TGI [1]: > 100 µM | TGI [3]: > 100 µM | TGI [4]: > 100 µM | TGI [5]: > 100 µM | TGI [6]: > 100 µM | TGI [7]: > 100 µM | TGI [8]: > 100 µM | TGI [9]: > 100 µM | TGI [10]: > 100 µM | TGI [56]: > 100 µM | TGI [11]: > 100 µM | TGI [12]: > 100 µM | TGI [13]: 5.05 µM | TGI [14]: > 100 µM | TGI [15]: > 100 µM | TGI [16]: > 100 µM | TGI [17]: > 100 µM | TGI [18]: > 100 µM | TGI [19]: > 100 µM | TGI [20]: > 100 µM | TGI [21]: > 100 µM | TGI [22]: > 100 µM | TGI [57]: > 100 µM | TGI [24]: > 100 µM | TGI [25]: > 100 µM | TGI [26]: > 100 µM | TGI [27]: > 100 µM | TGI [28]: > 100 µM | TGI [29]: > 100 µM | TGI [30]: > 100 µM | TGI [31]: > 100 µM | TGI [32]: > 100 µM | TGI [33]: > 100 µM | TGI [58]: > 100 µM | TGI [34]: > 100 µM | TGI [35]: > 100 µM | TGI [36]: > 100 µM | TGI [37]: > 100 µM | TGI [38]: > 100 µM | TGI [39]: > 100 µM | TGI [40]: > 100 µM | TGI [41]: > 100 µM | TGI [42]: > 100 µM | TGI [43]: > 100 µM | TGI [44]: > 100 µM | TGI [45]: > 100 µM | TGI [46]: > 100 µM | TGI [47]: > 100 µM | TGI [48]: > 100 µM | TGI [59]: > 100 µM | TGI [49]: > 100 µM | TGI [50]: > 100 µM | TGI [51]: > 100 µM | TGI [52]: > 100 µM | TGI [53]: > 100 µM | TGI [54]: > 100 µM | TGI [55]: > 100 µM

CCOC(=O)C(C)c1nc2cc(F)c(N3CCOCC3)cc2[nH]c1=O (centres undefined)
TGI [1]: > 100 µM | TGI [2]: > 100 µM | TGI [3]: > 100 µM | TGI [4]: > 100 µM | TGI [5]: > 100 µM | TGI [6]: > 100 µM | TGI [7]: > 100 µM | TGI [8]: > 100 µM | TGI [9]: > 100 µM | TGI [10]: > 100 µM | TGI [56]: > 100 µM | TGI [11]: > 100 µM | TGI [12]: > 100 µM | TGI [14]: > 100 µM | TGI [15]: > 100 µM | TGI [16]: > 100 µM | TGI [17]: > 100 µM | TGI [18]: > 100 µM | TGI [19]: > 100 µM | TGI [20]: > 100 µM | TGI [22]: > 100 µM | TGI [23]: > 100 µM | TGI [57]: > 100 µM | TGI [24]: > 100 µM | TGI [25]: > 100 µM | TGI [26]: > 100 µM | TGI [27]: > 100 µM | TGI [28]: > 100 µM | TGI [29]: > 100 µM | TGI [30]: > 100 µM | TGI [31]: > 100 µM | TGI [32]: > 100 µM | TGI [33]: > 100 µM | TGI [58]: > 100 µM | TGI [34]: > 100 µM | TGI [35]: > 100 µM | TGI [36]: > 100 µM | TGI [37]: > 100 µM | TGI [38]: > 100 µM | TGI [39]: > 100 µM | TGI [40]: > 100 µM | TGI [41]: > 100 µM | TGI [42]: > 100 µM | TGI [43]: > 100 µM | TGI [44]: > 100 µM | TGI [45]: > 100 µM | TGI [46]: > 100 µM | TGI [47]: > 100 µM | TGI [48]: > 100 µM | TGI [59]: > 100 µM | TGI [49]: > 100 µM | TGI [50]: > 100 µM | TGI [51]: > 100 µM | TGI [52]: > 100 µM | TGI [53]: > 100 µM | TGI [54]: > 100 µM | TGI [55]: > 100 µM
